{
  "source": "patent US11708366B2",
  "about": "“Heteroaryl substituted spiropiperidinyl derivatives and pharmaceutical uses thereof” (Novartis AG, priority 2020, dated 2023)",
  "key": {"LTC4S [1]": {"target": "T1, LTC4S (Homo sapiens (Human), UniProt Q16873)", "test": "Human whole blood HTRF assay (LTC4 release after calcium ionophore A23187)", "type": "cell-based", "conditions": "calcium ionophore A23187 stimulation, LTC4 by HTRF"}, "LTC4S [2]": {"target": "T1, LTC4S", "test": "Human LTC4S enzymatic assay (HTRF detection of LTC4-Me)", "type": "biochemical", "protocol": "A. Human LTC4S Enzymatic Assay:\nLTC4 synthase catalyzes the conversion of Leukotriene A4 (LTA4) to Leukotriene C4 (LTC4) in the presence of reduced glutathione (GSH) as a co-substrate. For compound testing, compounds are delivered as 10 mM stock solutions in 90% DMSO in matrix tubes. From this, a 1:3 dilution dose response series is prepared with a starting concentration of 30 μM to 0.1 nM. For the enzymatic assay 97.5 nL of compound/DMSO solution is transferred to each well and 5 μL enzyme solution (assay buffer: 50 mM bis-tris propane pH 7.3, 250 mM NaCl, 10 mM MgCl2, 0.001% MGN3) is added to the wells. […] The enzyme compound mixture is incubated at room temperature for 15 minutes prior to the addition of 5 μL substrate solution. […] A final substrate concentration of 400 μM GSH and 5 μM LTA4-Me is chosen.\nThe LTA4-Me is obtained commercially in 2% triethylamine/hexane solvent. As this solvent is incompatible with the HTRF assay it has to be exchanged with DMSO according to following procedure: add 50 μL of 100% DMSO to 50 μL LTA4-Me (3 mM) in a 2 mL Eppendorf tube and mix gently by inverting the tube. The triethylamine/hexane is evaporated under a constant argon flux at room temperature. The DMSO-LTA4-Me (3 mM) is aliquoted and stored at −20° C. for not longer than 4 weeks, as it is not stable in DMSO due to its oxidizing properties.\nUpon addition of the substrate, the plate is immediately placed on a shaker for 5 min at room temperature. Immediately after the 5 min incubation 5 μL of H2O2 solution is added to all wells to stop the reaction. The plate contents are mixed before the addition of detection reagents. […] For the detection of the product of the enzymatic reaction LTC4-Me, the Cisbio LTC4-HTRF kit is used as the assay is compatible with the detection of LTC4-Me. 5 μL of diluted LTC4-d2 conjugate (according to manufacturer's protocol) are added to all wells of the assay plate and the contents gently mixed and incubated for 5 minutes at room temperature. […] The percent inhibition for each point of an inhibition curve is calculated after data interpolation using the LTC4-Me standard curve, to convert the HTRF signal to the amount of LTC4-Me produced within the LTC4S catalyzed reaction on each plate. The data is analyzed using parametric curve fitting to determine IC50 values of LTC4S inhibitors."}, "[3]": {"conditions": "human whole blood diluted 1:3, 4 h incubation, read-out: human whole blood HTRF IC50"}, "[4]": {"conditions": "0.75 nM enzyme, 400 μM GSH, 5 μM LTA4-Me, 15 min pre-incubation, read-out: human LTC4S IC50 (enzymatic assay)"}},
  "data": [
    {"compound": "1-(4-chloro-3-fluorophenyl)-9-(5-((1R,2R)-2-(trifluoromethyl)cyclopropyl)-1,2,4-oxadiazol-3-yl)-1,9-diazaspiro[5.5]undecan-2-one, or 1-(4-chloro-3-fluorophenyl)-9-(5-((1S,2S)-2-(trifluoromethyl)cyclopropyl)-1,2,4-oxadiazol-3-yl)-1,9-diazaspiro[5.5]undecan-2-one [Example 6a]", "values": [
      {"measurement": "IC50", "setting": "LTC4S [1]; [3]", "result": 310, "unit": "nM"},
      {"measurement": "IC50", "setting": "LTC4S [2]; [4]", "result": 190, "unit": "nM"}
    ]},
    {"compound": "O=C1CCCC2(CCN(c3ncn(-c4ccc(F)cc4)n3)CC2)N1c1ccc(Cl)c(F)c1", "note": "[Example 1, 1-(4-chloro-3-fluorophenyl)-9-(1-(4-fluorophenyl)-1H-1,2,4-triazol-3-yl)-1,9-diazaspiro[5.5]undecan-2-one]", "values": [
      {"measurement": "IC50", "setting": "LTC4S [1]; [3]", "result": 13, "unit": "nM"},
      {"measurement": "IC50", "setting": "LTC4S [2]; [4]", "result": 6, "unit": "nM"}
    ]},
    {"compound": "O=C1CCCC2(CCN(c3nc4ccc(C(F)(F)F)cc4o3)CC2)N1c1ccc(Cl)c(F)c1", "note": "[Example 2, 1-(4-chloro-3-fluorophenyl)-9-(6-(trifluoromethyl)benzo[d]oxazol-2-yl)-1,9-diazaspiro[5.5]undecan-2-one]", "values": [
      {"measurement": "IC50", "setting": "LTC4S [2]; [4]", "result": 36, "unit": "nM"}
    ]},
    {"compound": "O=C1CCCC2(CCN(c3nccc(C(F)(F)F)n3)CC2)N1c1ccc(Cl)c(F)c1", "note": "[Example 3, 1-(4-chloro-3-fluorophenyl)-9-(4-(trifluoromethyl)pyrimidin-2-yl)-1,9-diazaspiro[5.5]undecan-2-one]", "values": [
      {"measurement": "IC50", "setting": "LTC4S [1]; [3]", "result": 180, "unit": "nM"},
      {"measurement": "IC50", "setting": "LTC4S [2]; [4]", "result": 8, "unit": "nM"}
    ]},
    {"compound": "O=C1CCCC2(CCN(c3ncc4ccc(C(F)(F)F)cc4n3)CC2)N1c1ccc(Cl)c(F)c1", "note": "[Example 4, 1-(4-chloro-3-fluorophenyl)-9-(7-(trifluoromethyl)quinazolin-2-yl)-1,9-diazaspiro[5.5]undecan-2-one]", "values": [
      {"measurement": "IC50", "setting": "LTC4S [1]; [3]", "result": 50, "unit": "nM"},
      {"measurement": "IC50", "setting": "LTC4S [2]; [4]", "result": 7, "unit": "nM"}
    ]},
    {"compound": "O=C1CCCC2(CCN(c3ccn4nc(C(F)(F)F)cc4n3)CC2)N1c1ccc(Cl)c(F)c1", "note": "[Example 5, 1-(4-chloro-3-fluorophenyl)-9-(2-(trifluoromethyl)pyrazolo[1,5-a]pyrimidin-5-yl)-1,9-diazaspiro[5.5]undecan-2-one]", "values": [
      {"measurement": "IC50", "setting": "LTC4S [1]; [3]", "result": 10, "unit": "nM"},
      {"measurement": "IC50", "setting": "LTC4S [2]; [4]", "result": 5, "unit": "nM"}
    ]},
    {"compound": "O=C1CCCC2(CCN(c3noc([C@H]4C[C@@H]4C(F)(F)F)n3)CC2)N1c1ccc(Cl)c(F)c1", "note": "[Example 6b, 1-(4-chloro-3-fluorophenyl)-9-(5-((1S,2S)-2-(trifluoromethyl)cyclopropyl)-1,2,4-oxadiazol-3-yl)-1,9-diazaspiro[5.5]undecan-2-one, or 1-(4-chloro-3-fluorophenyl)-9-(5-((1R,2R)-2-(trifluoromethyl)cyclopropyl)-1,2,4-oxadiazol-3-yl)-1,9-diazaspiro[5.5]undecan-2-one]", "values": [
      {"measurement": "IC50", "setting": "LTC4S [2]; [4]", "result": 44, "unit": "nM"}
    ]},
    {"compound": "O=C1CCCC2(CCN(c3nc(N4CCCC4)nnc3O)CC2)N1c1ccc(Cl)c(F)c1", "note": "[Example 8, 1-(4-chloro-3-fluorophenyl)-9-(6-hydroxy-3-(pyrrolidin-1-yl)-1,2,4-triazin-5-yl)-1,9-diazaspiro[5.5]undecan-2-one]", "values": [
      {"measurement": "IC50", "setting": "LTC4S [2]; [4]", "result": 7, "unit": "nM"}
    ]},
    {"compound": "O=C1CCCC2(CCN(c3nccc(N4CC5(CC5)C4)n3)CC2)N1c1ccc(Cl)c(F)c1", "note": "[Example 35b, 9-(4-(5-azaspiro[2.3]hexan-5-yl)pyrimidin-2-yl)-1-(4-chloro-3-fluorophenyl)-1,9-diazaspiro[5.5]undecan-2-one]", "values": [
      {"measurement": "IC50", "setting": "LTC4S [2]", "result": 3, "unit": "nM"}
    ]},
    {"compound": "O=C1CCCC2(CCN(c3cc(N4CC(F)(F)C(F)(F)C4)ncn3)CC2)N1c1ccc(Cl)c(F)c1", "note": "[Example 44, 1-(4-chloro-3-fluorophenyl)-9-(6-(3,3,4,4-tetrafluoropyrrolidin-1-yl)pyrimidin-4-yl)-1,9-diazaspiro[5.5]undecan-2-one]", "values": [
      {"measurement": "IC50", "setting": "LTC4S [2]; [4]", "result": 13, "unit": "nM"}
    ]},
    {"compound": "Nc1nc(OC2CCOCC2)cc(N2CCC3(CCCC(=O)N3c3ccc(F)c(F)c3)CC2)n1", "note": "[Example 101, 9-(2-amino-6-((tetrahydro-2H-pyran-4-yl)oxy)pyrimidin-4-yl)-1-(3,4-difluorophenyl)-1,9-diazaspiro[5.5]undecan-2-one]", "values": [
      {"measurement": "IC50", "setting": "LTC4S [1]; [3]", "result": 5, "unit": "nM"}
    ]},
    {"compound": "[2H]C1(Oc2cc(N3CCC4(CCCC(=O)N4c4ccc(F)c(F)c4)CC3)nc(N)n2)CCOCC1", "note": "[Example 103, 9-(2-amino-6-((tetrahydro-2H-pyran-4-yl-4-d)oxy)pyrimidin-4-yl)-1-(3,4-difluorophenyl)-1,9-diazaspiro[5.5]undecan-2-one]", "values": [
      {"measurement": "IC50", "setting": "LTC4S [1]; [3]", "result": 8, "unit": "nM"}
    ]},
    {"compound": "O=C1CCCC2(CCN(c3cc(OC4CCOCC4)nc(CO)n3)CC2)N1c1ccc(F)c(F)c1", "note": "[Example 106, 1-(3,4-difluorophenyl)-9-(2-(hydroxymethyl)-6-((tetrahydro-2H-pyran-4-yl)oxy)pyrimidin-4-yl)-1,9-diazaspiro[5.5]undecan-2-one]", "values": [
      {"measurement": "IC50", "setting": "LTC4S [1]; [3]", "result": 69, "unit": "nM"}
    ]},
    {"compound": "O=C1CCCC2(CCN(c3cc(O[C@H]4CCOC4)nc(CO)n3)CC2)N1c1ccc(F)c(F)c1", "note": "[Example 109, (S)-1-(3,4-difluorophenyl)-9-(2-(hydroxymethyl)-6-((tetrahydrofuran-3-yl)oxy)pyrimidin-4-yl)-1,9-diazaspiro[5.5]undecan-2-one]", "values": [
      {"measurement": "IC50", "setting": "LTC4S [1]; [3]", "result": 15, "unit": "nM"}
    ]},
    {"compound": "Nc1nc(N[C@@H]2CCOC2)cc(N2CCC3(CCCC(=O)N3c3ccc(F)c(F)c3)CC2)n1", "note": "[Example 112, (R)-9-(2-amino-6-((tetrahydrofuran-3-yl)amino)pyrimidin-4-yl)-1-(3,4-difluorophenyl)-1,9-diazaspiro[5.5]undecan-2-one]", "values": [
      {"measurement": "IC50", "setting": "LTC4S [1]; [3]", "result": 67, "unit": "nM"}
    ]},
    {"compound": "C[C@H](Oc1cc(N2CCC3(CCOC(=O)N3c3ccc(F)c(F)c3)CC2)nc(N)n1)C(F)(F)F", "note": "[Example 113b, (S)-9-(2-amino-6-((1,1,1-trifluoropropan-2-yl)oxy)pyrimidin-4-yl)-1-(3,4-difluorophenyl)-3-oxa-1,9-diazaspiro[5.5]undecan-2-one, or (R)-9-(2-amino-6-((1,1,1-trifluoropropan-2-yl)oxy)pyrimidin-4-yl)-1-(3,4-difluorophenyl)-3-oxa-1,9-diazaspiro[5.5]undecan-2-one]", "values": [
      {"measurement": "IC50", "setting": "LTC4S [1]; [3]", "result": 36, "unit": "nM"}
    ]},
    {"compound": "O=C1OCCC2(CCN(c3cc(-n4cc(C(F)(F)F)cn4)nc(CO)n3)CC2)N1c1ccc(F)c(F)c1", "note": "[Example 114, 1-(3,4-difluorophenyl)-9-(2-(hydroxymethyl)-6-(4-(trifluoromethyl)-1H-pyrazol-1-yl)pyrimidin-4-yl)-3-oxa-1,9-diazaspiro[5.5]undecan-2-one]", "values": [
      {"measurement": "IC50", "setting": "LTC4S [1]; [3]", "result": 7, "unit": "nM"}
    ]},
    {"compound": "Nc1nc(N2CCC3(CCOC(=O)N3c3ccc(F)c(F)c3)CC2)cc(-n2cc(C(F)(F)F)cn2)n1", "note": "[Example 115, 9-(2-amino-6-(4-(trifluoromethyl)-1H-pyrazol-1-yl)pyrimidin-4-yl)-1-(3,4-difluorophenyl)-3-oxa-1,9-diazaspiro[5.5]undecan-2-one]", "values": [
      {"measurement": "IC50", "setting": "LTC4S [1]; [3]", "result": 28, "unit": "nM"}
    ]},
    {"compound": "O=C1CC(F)CC2(CCN(c3cc(OCC(F)(F)F)ncn3)CC2)N1c1ccc(F)c(F)c1", "note": "(stereo not shown) [Example 119, 1-(3,4-difluorophenyl)-4-fluoro-9-(6-(2,2,2-trifluoroethoxy)pyrimidin-4-yl)-1,9-diazaspiro[5.5]undecan-2-one]", "values": [
      {"measurement": "IC50", "setting": "LTC4S [1]; human whole blood HTRF IC50, human whole blood diluted 1:3, 4 h incubation", "result": 29, "unit": "nM"}
    ]},
    {"compound": "CC(F)(F)c1cc(N2CCC3(CCCC(=O)N3c3ccc(F)c(F)c3)CC2)nc(N)n1", "note": "[Example 120, 9-(2-amino-6-(1,1-difluoroethyl)pyrimidin-4-yl)-1-(3,4-difluorophenyl)-1,9-diazaspiro[5.5]undecan-2-one]", "values": [
      {"measurement": "IC50", "setting": "LTC4S [1]; [3]", "result": 32, "unit": "nM"}
    ]},
    {"compound": "(R)-9-(2-amino-6-((1,1,1-trifluoropropan-2-yl)oxy)pyrimidin-4-yl)-1-(3,4-difluorophenyl)-3-oxa-1,9-diazaspiro[5.5]undecan-2-one, or (S)-9-(2-amino-6-((1,1,1-trifluoropropan-2-yl)oxy)pyrimidin-4-yl)-1-(3,4-difluorophenyl)-3-oxa-1,9-diazaspiro[5.5]undecan-2-one [Example 113a]", "values": [
      {"measurement": "IC50", "setting": "LTC4S [1]; [3]", "result": 15, "unit": "nM"}
    ]},
    {"compound": "(S)-1-(3,4-difluorophenyl)-9-(2-(hydroxymethyl)-6-((1,1,1-trifluoropropan-2-yl)oxy)pyrimidin-4-yl)-1,9-diazaspiro[5.5]undecan-2-one or (R)-1-(3,4-difluorophenyl)-9-(2-(hydroxymethyl)-6-((1,1,1-trifluoropropan-2-yl)oxy)pyrimidin-4-yl)-1,9-diazaspiro[5.5]undecan-2-one [Example 110a]", "values": [
      {"measurement": "IC50", "setting": "LTC4S [1]; [3]", "result": 3, "unit": "nM"}
    ]},
    {"compound": "(S)-9-(2-amino-6-(2,2,2-trifluoro-1-(oxetan-3-yl)ethoxy)pyrimidin-4-yl)-1-(3,4-difluorophenyl)-1,9-diazaspiro[5.5]undecan-2-one or (R)-9-(2-amino-6-(2,2,2-trifluoro-1-(oxetan-3-yl)ethoxy)pyrimidin-4-yl)-1-(3,4-difluorophenyl)-1,9-diazaspiro[5.5]undecan-2-one [Example 89a]", "values": [
      {"measurement": "IC50", "setting": "LTC4S [1]; [3]", "result": 1, "unit": "nM"}
    ]}
  ]
}
